Measured values published in a melting point compilation (Tetko et al.; mined from patent text by program, amines drawn as free bases though some values may be those of a salt).

| melting point | SMILES |
| --- | --- |
| 193 to 194 °C | CN(C)c1nc(=O)n(-c2cc(OCc3ccccc3)c(Cl)cc2F)c(=O)n1C |
| 187 to 190 °C | Clc1ccc2[nH]c3c(c2c1)CN(CCc1ccc2ccccc2n1)CC3 |
| 178 to 183 °C | FC(F)(F)c1ccc(-c2cc(Oc3ccc4cccnc4c3)nnc2-c2ccccc2)cc1 |
| 232 to 235 °C | C[C@@H]1S[C@@H](C(=O)Nc2ccc(CN3C(=O)CSC3=O)cc2)Cc2cc3c(cc2C1=O)OCO3 |
| 133 to 140 °C | Oc1ccc2cc(COC=C3C4CC5CC(C4)CC3C5)ccc2c1 |
| 98 °C | CCOc1ccc2[nH]c(=O)n(-c3ccc(OC)cc3)c2c1 |
| 189 to 191 °C | N#Cc1ccc(CN2C(=O)c3ccccc3C2=O)cc1 |
| 143 to 145 °C | CC(Oc1ncn(-c2cccc(Cl)c2)n1)C(N)=O (configuration not stated) |
| 122 to 123 °C | CN1CCC(Oc2cc(Cl)ccc2C(N)=O)C1 (configuration not stated) |
| 98 to 101 °C | CCCCCCCCCCCCCCCCCCC(N)CN (configuration not stated) |
| 80 to 82 °C | COc1ccc(C2(C)CCc3cc(OC)ccc3C2(O)C#CCCCCOC2CCCCO2)cc1 (configuration not stated) |
| 103 to 105 °C | CC(C)(C)c1cc(Br)c(O)c(C=O)c1Cl |
| 196 °C | COC(=O)c1cc(F)ccc1Nc1ccnc2c(Cl)cccc12 |
| 179 to 181 °C | COc1ccc(-c2nccc(C(N)=O)c2N)cc1 |
| 172 to 173 °C | O=C(N[C@H](Cc1ccccc1)[C@H](O)C(=O)O)c1ccccc1 |
| 108 to 109 °C | O=Cc1nn(-c2ccccc2)c2c1CCC2 |
| 171 to 172 °C | CCCN(CC1CC1)c1nc(C)nc2c1CCCC2(C)c1ccc(Cl)cc1 (configuration not stated) |
| 88 to 92 °C | COC(=O)c1ccc(CN2C(=O)C3(COc4cc5c(cc43)OCCO5)c3ccccc32)o1 (configuration not stated) |
| 55 to 57 °C | COc1cc(C=O)c(OC)c2c1C(C)(C)CCC2(C)C |
| 138 to 140 °C | CCN(CC)CCN1C(=O)Nc2cnccc2C1c1ccccc1 (configuration not stated) |
| 154 to 157 °C | CCCCCc1cnc(N2CCC(c3ccc(COc4ccc(S(C)(=O)=O)cc4)nc3)CC2)nc1 |
| 115 to 116 °C | CN(C)Cc1ccc(CSCCNC(=C[N+](=O)[O-])NCC(O)c2ccccc2)o1 (configuration not stated) |
| 119 to 122 °C | Cc1nc(N2CCc3ccccc3CC2)c(C#N)c(=O)n1CC1CC1 |
| 232 to 234 °C | C[C@H](NC(=O)c1c[nH]c2ncc(C3CC3)nc12)C(C)(C)CS(C)(=O)=O |

| melting point | SMILES |
| --- | --- |
| 178 to 180 °C | C#Cc1ccnc(-c2ccc(-c3cc(C#C)ccn3)c([N+](=O)[O-])c2)c1 |
| 175 to 177 °C | Cc1c(C(=O)c2cnn(C(C)C)c2O)ccc2sc(=O)n(C)c12 |
| 190 to 195 °C | OCc1nc2n(n1)-c1ccccc1N(c1ccc(Cl)cc1)C2 |
| 261 to 263 °C | Cc1cc(-c2nnc3c4ccccc4c(OCc4nncn4C)nn23)no1 |
| 104 °C | Cc1cnc2c(c1)CCCC2C(N)=O (configuration not stated) |
| 246 to 248 °C | O=C(Nc1c([N+](=O)[O-])ccc2c3c(oc12)CCCC3)c1c(Cl)cccc1Cl |
| > 250 °C | CC(C)n1nc(-c2sc(NC(=O)c3ccc(Cn4ccnc4)cc3)nc2-c2ccccc2)ccc1=O |
| 267 to 268 °C | O=C1Nc2ccc(Br)cc2/C1=C/c1ccc[nH]1 |
| 72 to 74 °C | CCCCNC(=O)C(O[Si](C)(C)C(C)(C)C)c1ccccc1O (configuration not stated) |
| 144 to 147 °C | O=C(O)CCCCCc1cccc2cncn12 |
| 208 °C | CCN(CC)C(=O)c1nn(-c2cccc(OC)c2)c(=O)c2c1c1ccc(Cl)cc1n2C |
| 141 to 149 °C | Cc1sc(Cl)cc1C1(c2cccc(-c3cncnc3)c2)N=C(N)N(C)C1=O (configuration not stated) |
| 110 °C | Cc1cccc(NC(=O)NCC(=O)N(CC(=O)OC(C)(C)C)c2cccc(Cl)c2)c1 |
| 84 to 85 °C | N#CCCCOc1cccc(OCc2ccc3ccccc3n2)c1 |
| 113 to 114 °C | COC(=O)c1c(-c2ccc(F)cc2)ccc2ccccc12 |
| 273 to 274 °C | N#Cc1cn(-c2c(Cl)cccc2Cl)c(=O)[nH]c1=O |
| 213 to 216 °C | Cc1cc(NCCO)c2[nH]ncc2n1 |
| 99 °C | Cc1nc2ccccc2n1Cc1c(F)cccc1F |
| 139 to 144 °C | CCCCc1nc(C(C)(C)O)c(C(=O)OCOC(=O)C(C)(C)C)n1Cc1ccc(-c2ccccc2C(=O)O)cc1 |
| > 170 °C | COc1ccc2c(n1)C1(CO2)C(=O)N(CC(=O)Nc2ccccc2F)c2ccccc21 (configuration not stated) |
| 68 to 72 °C | COC(=O)CC(=O)c1cc(F)c(F)c(F)c1F |
| 105 to 106 °C | C=CCNC(=O)N(N(CCCl)S(C)(=O)=O)S(C)(=O)=O |
| 164 to 166 °C | CCCc1nc2c(N)nc(C)c(C)c2n1CCCCN(O)C(C)=O |
| 93 °C | FC(F)c1cc(Cl)nc2c1cnn2C1CCCCO1 (configuration not stated) |

| melting point | SMILES |
| --- | --- |
| 294 to 298 °C | O=C1Nc2ccc(Cl)cc2C1c1ncnc2nn(C3CCCCC3)cc12 (configuration not stated) |
| 94 to 95 °C | CCCOc1ccc(-c2scc(-c3ccccc3)c2CC(=O)NC(=N)N)cc1 |
| 138 to 140 °C | COc1ccc(C[C@H](NC(=O)OCc2ccccc2)C(=O)N2CCN(CC(=O)OC(C)(C)C)C(=O)[C@@H]2CCCNC(=O)OCc2ccccc2)cc1 |
| 107 to 109 °C | CC(=O)N1[C@@H](C)[C@@H]2C(=O)N(Cc3ccccc3)C(=O)[C@@H]2[C@@H]1c1ccc(C#N)cc1 (racemic) |
| 298 to 304 °C | CC1(C)CC(N(c2nc(F)nc(N(C3CC(C)(C)NC(C)(C)C3)C3CC(C)(C)NC(C)(C)C3)n2)C2CC(C)(C)NC(C)(C)C2)CC(C)(C)N1 |
| 138 to 140 °C | CCOC(=O)CCCOc1c(Br)cc(Br)c(C(N)=O)c1Br |
| 214 to 215 °C | Nc1nc(-c2ccccc2)c(-c2ccnc(Nc3cccc(CO)c3)n2)s1 |
| 98 to 99 °C | CC(Oc1ccc(Cl)cc1)c1ccnc2ncnn12 (configuration not stated) |
| 116 °C | O=S(=O)(Nc1ccc(C2=NC3(O)c4ccc(Cl)cc4CC3S2)cc1)c1ccc(Cl)cc1 (configuration not stated) |
| 93 to 94 °C | CCOC(=O)c1cnc2sccc2c1Sc1nnc(C)s1 |
| 275 °C | Cc1cc(Oc2ccc(S(C)(=O)=O)c(S(F)(F)(F)(F)F)c2)c(S(C)(=O)=O)cc1C(=O)NC(=N)N |
| 130 to 137 °C | COC(=O)c1ccc(C(F)(F)F)nc1S(=O)(=O)NC(=O)Nc1nc(OC)cc(OC)n1 |
| 87 to 88 °C | COc1cc2c(cc1OC)C(=O)CCCO2 |
| 145 °C | COc1cc2c(cc1Nc1ncc(Cl)c(Nc3ccc(N(C)C)cc3OC)n1)CCN(CC(=O)N1CCN(C)CC1)CC2 |
| 106 to 108 °C | CC(C)(C)c1cc(C(=O)c2nccs2)cc(C(C)(C)C)c1O |
| 112 °C | CCOC(=O)C(C)(C)Oc1ccc(OCCc2nc(-c3ccc(C(N)=O)cc3)oc2C)cc1 |
| 247 to 248 °C | CN1CCN(C=Nc2ccc3nnc(-c4ccc([N+](=O)[O-])o4)n3n2)CC1 |
| 118 to 120 °C | CC(C)N(C(=O)n1nc(Oc2ccc(C(F)(F)F)cc2[N+](=O)[O-])cc1C(F)(F)F)C(C)C |
| 112 to 113 °C | CCN(CC)C(=O)Cc1ccc(O)c(C(C)C)c1 |
| 127 to 131 °C | Cn1cc(CCNC(=O)OC(C)(C)C)c2cc(S(=O)(=O)c3ccccc3)ccc21 |
| 252 to 255 °C | Oc1ccc2c(c1)COc1c-2cc2ccc(O)cc2c1-c1cc(Cl)cc(Cl)c1 |
| 167 to 170 °C | CN(CCCOc1ccc(OC(F)(F)F)cc1)C1CCN(c2ccc(OC[C@@]3(C)Cn4cc([N+](=O)[O-])nc4O3)cc2)CC1 |
| 138 to 139 °C | Clc1ccc(C(c2ccccc2)c2c(Cl)ncnc2Cl)c(Cl)c1 (configuration not stated) |
| 175 °C | O=C(NC1CCc2ccccc2C1=O)c1ccccc1 (configuration not stated) |

| melting point | SMILES |
| --- | --- |
| 100 to 102 °C | N#Cc1c(C(F)(F)F)ccc(F)c1N |
| 199 to 202 °C | COc1cc(C)nc(NC(=O)NS(=O)(=O)c2ccccc2-c2ccccc2)n1 |
| 93.5 °C | COC(=O)C(CCl)NC(=O)c1c(F)cccc1F (configuration not stated) |
| 170 °C | CCN(CCCCCCN)c1ccc2c(=O)[nH][nH]c(=O)c2c1 |
| 187 to 190 °C | O=c1[nH]c2c(cc1-c1noc(C3CC3)n1)CN(Cc1ccccc1)CC2 |
| 113 °C | CC1(C)CC([N+]([O-])=Cc2ccccc2)CC(C)(C)N1 |
| 71.8 °C | CCOC(=O)c1cc(C)nc2c(O)cccc12 |
| 262 °C | CC(C)(C)NC(=O)c1ccc(S(=O)(=O)N2C(=O)C(C)(c3ccccc3Cl)c3cc(O)ccc32)cc1 (configuration not stated) |
| 114 to 116 °C | CCc1ncnc(NC2CCC(c3ccc(Oc4ccc(C(F)(F)F)cn4)cc3)CC2)c1Cl (configuration not stated) |
| 113 to 115 °C | CC(C)(C)c1cc(OCCCCC(=O)O)cc(C(C)(C)C)c1 |
| 112 to 115 °C | CC(C)CCCc1c(-c2ccc(S(C)(=O)=O)cc2)cnn(-c2ccc(F)cc2)c1=O |
| 124 to 126 °C | COc1ccc(-c2cc(-c3ccccc3)c(-c3ccccc3)s2)cc1 |
| 263 to 265 °C | O=c1ccc2c(-n3cnc(-c4ccccc4)c3)nccc2[nH]1 |
| 110 to 112 °C | C#CC(CC)(CC)NC(=O)C(CCN1CCN(c2ccccc2OC)CC1)c1ccccc1 (configuration not stated) |
| 78 to 80 °C | Cc1cccc(-c2n[nH]cc2-c2ccc(F)c(-c3csc(C(C)(C)O)n3)c2)n1 |
| 81 to 82 °C | CC1(C)CCCSc2cc(Br)ccc21 |
| 135 to 137 °C | CCOC(=O)c1cc(Cl)n2nc(-c3ccccc3)cc2n1 |
| 100 °C | O=C(O)CCCCCn1nnnc1S |
| 152 °C | COC1(OC)C=CC=CC1C1c2cccc(O)c2C(=O)c2c(O)cccc21 (configuration not stated) |
| 71 to 72 °C | Cc1cc(-c2nc(CCl)co2)sc1Br |
| 281 °C | CCOc1cc(-c2cc(C(F)(F)F)n3ncc(C(=O)Nc4cc(S(N)(=O)=O)sc4Cl)c3n2)ccc1C(F)(F)F |
| 170 to 171 °C | Cc1ccccc1NC(=O)CN1CC2CCC(C1)N2S(=O)(=O)c1ccccc1Cl |

| SMILES | melting point |
| --- | --- |
| Cc1cc(Cl)cc(C(=O)N(Cc2ccccc2)C2(C)CNC2)c1NC(=O)c1cc(C(F)(F)F)nn1-c1ncccc1Cl | 127 to 130 °C |
| O=C1NC(=O)C(c2ccc(-c3ccccc3)cc2)(N2CCN(c3ccc(N4C(=O)CCC4=O)cc3)CC2)C(=O)N1 | 310 to 311 °C |
| OC(CCN1CC=C(c2ccc(Cl)cc2)CC1)c1ccc(F)cc1 (configuration not stated) | 130 to 132 °C |
